# Paper PMC9965625, “Endocannabinoid 2-Arachidonoylglycerol Synthesis and Metabolism at Neuronal Nuclear Matrix Fractions Derived from Adult Rat Brain Cortex” (International Journal of Molecular Sciences, 2023)
# Molecular target: T1, α/β-hydrolase domain 12 protein (ABHD12) (Rattus norvegicus, UniProt Q6AYT7)
# T1 construct: native enzyme in nuclear matrix fraction of adult rat brain cortex
# T1 sequence (Q6AYT7 1-398): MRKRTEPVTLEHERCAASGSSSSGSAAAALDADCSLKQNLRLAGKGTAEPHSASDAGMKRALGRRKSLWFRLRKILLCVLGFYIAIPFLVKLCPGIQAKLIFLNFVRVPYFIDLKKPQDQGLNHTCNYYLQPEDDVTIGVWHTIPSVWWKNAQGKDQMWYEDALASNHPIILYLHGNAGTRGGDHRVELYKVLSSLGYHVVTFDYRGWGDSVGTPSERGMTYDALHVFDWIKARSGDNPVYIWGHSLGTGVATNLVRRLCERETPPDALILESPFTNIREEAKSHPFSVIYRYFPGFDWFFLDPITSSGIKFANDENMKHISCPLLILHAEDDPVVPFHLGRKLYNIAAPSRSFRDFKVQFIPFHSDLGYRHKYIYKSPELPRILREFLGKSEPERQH
# Test: LC/MS/MS of arachidonic acid formed from […] exogenous 2-AG in nuclear matrix fraction, blocked by MAFP
# Type: cell-based
smiles,measurement,value
CCCCC/C=C\C/C=C\C/C=C\C/C=C\CCCC(=O)OC(CO)CO [2-AG],LC/MS/MS of arachidonic acid formed from 10 μM exogenous 2-AG in nuclear matrix,ABHD12 is the main responsible for the hydrolysis of 2-AG in the nuclear matrix
